Test results as given in PMC5458179, “Oxidative DNA double strand breaks and autophagy in the antitumor effect of sterically hindered platinum(II) complexes in NSCLCs” (Oncotarget, 2017).
Read-outs that look alike come from different tables or passages of the source.

Legend:
A549 cells [1] = assay: Subcellular distribution of Pt (mitochondria, lysosomes, nucleus, residual); conditions: A549, 10 μM, 4 h, ICP-MS
Source text: (§1) One of the main factors to determine the mechanism of cytotoxic activity of a metal-based drug is its ability to cross the cell membrane and to accumulate in cancer cells. Therefore, with the aim of correlating cellular accumulation, we investigated the cellular uptake of the platinum complexes in A549, NCI-H1299 cancer cells and L02 normal cell. […] Moreover, the amount of Pt in the different subcellular compartments of cancer cells was quantified to fetch a more detailed picture of Pt-based complexes intracellular localization (Figure 1C).
(§2) The cells were seeded in 6-well plates overnight and then incubated with 10 μM drugs at 37°C in standard culture conditions. After 4 h, the cells were washed with PBS buffer (pH 7.4) for three times, and harvested by trypsinization. […] The organelles were then isolated via differential centrifugation. All cellular compartments (mitochondria, lysosomes and nucleus) were isolated from A549 and NCI-H1299 cancer cells for direct comparative purposes. The supernatant phases discarded during the isolation of nuclei, lysosomes and mitochondria procedures were collected and formed the “residual” fraction. An aliquot of crude lysate after homogenization, nuclear, mitochondrial (pellet lysed via freeze and thaw cycles followed by 20 min incubation in ultrasonic bath), lysosomal and residual fraction was each used for protein quantification using the Bradford method. The harvested cells were concentrated and digested by nitric acid for the ICP measurement. The cell numbers were counted before the digested. For the measurement of Pt concentration in cellular DNA in A549, NCI-H1299 cancer cells, DNA was isolated by applying Genomic DNA Mini Preparation Kit (Beyotime, China), and Pt content in DNA was analyzed by ICP.

NCI-H1299 cells [2] = assay: as above; conditions: NCI-H1299, 10 μM, 4 h, ICP-MS
Source text: as §1, §2

A549 = assay: MTT cytotoxicity assay; type: cell-based, human; conditions: 48 h drug exposure
Protocol: (§3) The results reveal that the steric hindrance plays a significant role in the cytotoxicity of complex 3.
(§4) The effects of complex 3 on the viability of NSCLC cancer cells including A549 and NCI-H1299 were detected respectively via MTT assays at time points of 12, 24, 48 and 72 h (Figure 2A). The results shown that complex 3 could inhibit the viability of the NSCLC cells.
(§5) Human cancer cell lines HepG2, SGC-7901, HCT-116, A549, NCI-H1299 and MCF-7 as well as normal liver cell line L02 were purchased from the Cell Bank of Shanghai Institute of Cell Biology. Among them, MCF-7, HepG2 cells were cultured at 37 °C in 5% CO2 with DMEM supplemented with 10% fetal bovine serum (FBS) (Hyclone, Lifescience, USA) and 1% penicillin/streptomycin (Beyotime, Nantong, China), while HCT-116, SGC-7901, A549, NCI-H1299 and L02 cells were cultured at 37 °C in 5% CO2 with RPMI-1640 supplemented with 10% FBS and 1% penicillin/streptomycin. Cells were passed every 2 days and restarted from frozen stocks upon reaching pass number 20.
(§6) In vitro cytotoxicity of the platinum compounds against human hepatocellular carcinoma (HepG-2), gastric carcinoma (SGC-7901), non-small-cell lung cancer (A549), and colorectal cancer (HCT-116) cell lines were measured by the MTT assays. Briefly, the cells were seeded in 96-well cultured plates at a density of 5000 cells/well. After overnight incubation (16 h), the cells were treated with the platinum complexes. After 48 h of incubation, 10 μL of a freshly diluted 3-(4,5-dimethyl-2-thiazolyl)-2,5-diphenyl-2H-tetrazolium bromide (MTT) solution (5 mg/mL) were added to each well and the plates were incubated at 37 °C in a humidified 5% CO2 atmosphere for 4 h. At the end of the incubation period the medium was removed and the formazan product was dissolved in 150 μL of DMSO. The cell viability was evaluated by measurement of the absorbance at 490 nm, using an Absorbance Reader (BioRad). IC50 values (compound concentration that produces 50% of cell growth inhibition) were calculated from curves constructed by plotting cell survival inhibitory rate (%) versus drug concentration logarithm. All experiments were repeated in three times. The reading values were converted to the percentage of control (% cell survival). Cytotoxic effects were expressed as IC50 values.

NCI-H1299 = assay: MTT cytotoxicity assay; type: cell-based, human
Protocol: as §3, §4, §5, §6

A549 cells [3] = assay: Annexin V-FITC/PI apoptosis assay (flow cytometry); type: cell-based, human; conditions: A549, 50 μM for 24 h (figure legend and method: 10 μM)
Protocol: (§7) Apoptosis is a crucial programmed death form of aging or damaged cells. […] To further explore the impact of complex 3 on long-term clonogenic survival, colony formation assay was performed.
(§8) Annexin V-FITC apoptosis detection kit (Keygen, Jiangsu, China) assay was performed according to the manufacturer's protocol. […] Then the cells were collected, resuspended in binding buffer (pH 7.5, 10 mM HEPES, 2.5 mM CaCl2 and 140 mM NaCl), incubated with Annexin V-FITC and then PI for 10 min in the dark at room temperature, the processed cells were analyzed by flow cytometry (FACSCalibur, Becton Dickinson) and a computer station running Cell-Quest software. (BD Biosciences, Franklin Lakes, NJ).

NCI-H1299 cells [4] = assay: Annexin V-FITC/PI apoptosis assay (flow cytometry); type: cell-based, human; conditions: NCI-H1299, 50 μM for 24 h (figure legend and method: 10 μM)
Protocol: as §7, §8

[5] = Pharmacokinetics, Pt in rat plasma after intravenous administration; type: in vivo, SD rats
Protocol: The pharmacokinetic profile of complex 3 was performed as compared with cisplatin. […] A non-compartment model was applied to analyze changes of pharmacokinetic behaviors. […] The results could be attributed to the biodistribution of the complex 3 in normal tissues as well as retention in blood circulation.
0.6 ml of blood compounds were collected from orbital cavity at 5 min followed by 0.5, 1, 2, 4, 8, 12 and 24 h after intravenous administration, heparinized and then centrifuged at 4000 rpm for 20 min at 4°C. The supernatant plasma was collected for measurement of Pt content using ICP-MS. The apparent plasma half-life time was calculated using a Phoenix Win Nonlin 6.3 Program (Pharsight Cooperation, St. Louis Missouri, USA).

[6] = 48 h drug exposure, read-out: IC50 NCI-H1299

Row | SMILES | share of intracellular Pt, nucleus (A549 cells [1]) [%] | share of intracellular Pt, nucleus (NCI-H1299 cells [2]) [%] | IC50 (A549) [µM] | IC50 (NCI-H1299; 24 h, 2 to 128 μM, read-out: IC50 NCI-H1299 exposed for 24 h) [µM] | IC50 (NCI-H1299; [6]) [µM] | early and median apoptotic cells (A549 cells [3]) [%] | early and median apoptotic cells (NCI-H1299 cells [4]) [%] | late apoptotic cells (NCI-H1299 cells [4]) [%] | t1/2, Pt concentration-time profile in rat plasma ([5]; rat, in vivo, iv, 5 mg/kg) | t1/2, Pt concentration-time profile in rat plasma ([5]; rats, intravenous, 5 mg/kg oxaliplatin or equivalent dose)
1 | CC(C)C[NH+]1[C@@H]2CCCC[C@H]2[NH+](CC(C)C)[Pt-2]12[O]C(=O)CC(=O)[O]2 (some centres unmarked) [Complex 3] | 79 | 72 | 14.2 ± 1.22 | 7.42 | 20.9 ± 1.36 | 0.94 | 9.77 | 27.51 | ~ 24.5 h | 
2 | O=C1[O][Pt]2([NH][C@@H]3CCCC[C@H]3[NH]2)[O]C1=O [Oxaliplatin, oxaliplatin, reference compound] | 63 | 57 | 112 ± 11.3 |  | 62.4 ± 2.35 | 29.50 | 10.27 | 15.98 |  | ~ 13.1 h
